This is an account of results in patent US20240327364A1, “THERAPEUTIC TARGETING OF GPR68 TO INDUCE FERROPTOSIS” (University Of Maryland, Baltimore, priority 2023, published 2024).

Assay [1] concerns the target T1, MST1R (Homo sapiens, UniProt Q04912).
T1 construct: purchased DiscoveRx
In words: KinomeScan. Format: binding. The following applies: read-out: % Control.

The target of assay [2] is T2, CCR1 (Homo sapiens, UniProt P32246).
T2 construct: host or cells: Chem-1 cells with Gα15
In words: GPCR Profiler. In kind it is cell-based.

Assay [3] deals with T3, ABL1(F317L)-phosphorylated (Homo sapiens, UniProt P00519, F317L).
T3 construct: purchased DiscoveRx
In words: KinomeScan. In kind it is binding. The following applies: read-out: % Control.

Assay [4] addresses T4, PFTAIRE2 (Homo sapiens, UniProt Q96Q40).
T4 construct: purchased DiscoveRx (Fremont, CA)
The assay can be described thus: KinomeScan. In kind it is binding. The following applies: read-out: % Control.

The target of assay [5] is T5, MAST1 (Homo sapiens, UniProt Q9Y2H9).
T5 construct: purchased DiscoveRx (Fremont, CA)
The assay can be described thus: KinomeScan. The following applies: read-out: % Control. Format: binding.

For assay [6], the target named is T6, CRF1 (Homo sapiens, UniProt P34998).
T6 construct: host or cells: Chem-1 cells with Gα15
In words: GPCR Profiler. Format: cell-based.

Assay [7] deals with T7, FLT1 (Homo sapiens, UniProt P17948).
T7 construct: purchased DiscoveRx (Fremont, CA)
In words: KinomeScan. In kind it is binding. To be noted: read-out: % Control.

The target in assay [8] is CSNK1G1 (Homo sapiens, UniProt Q9HCP0). In words: KinomeScan. In kind it is binding. The following applies: read-out: % Control.
Assay [9] has as its target T8, NTR1 (Homo sapiens, UniProt P30989).
T8 construct: host or cells: Chem-1 cells expressing Gα15
In words: GPCR Profiler. In kind it is cell-based.

Assay [10] addresses T9, TNIK (Homo sapiens, UniProt Q9UKE5).
T9 construct: purchased DiscoveRx (Fremont, CA)
The assay can be described thus: KinomeScan. Format: binding. The following applies: read-out: % Control.

The target in assay [11] is T10, MARK2 (Homo sapiens, UniProt Q7KZI7).
T10 construct: purchased DiscoveRx (Fremont, CA)
The assay can be described thus: KinomeScan. Format: binding. The following applies: read-out: % Control.

For assay [12], the target named is T11, PKAC-beta (Homo sapiens, UniProt P22694).
T11 construct: purchased DiscoveRx (Fremont, CA)
In words: KinomeScan. In kind it is binding. To be noted: read-out: % Control.

Assay [13] concerns the target T12, PIM2 (Homo sapiens, UniProt Q9P1W9).
T12 construct: purchased DiscoveRx (Fremont, CA)
In words: KinomeScan. Format: binding. To be noted: read-out: % Control.

Assay [14] deals with T13, PIK3CA(H1047L) (Homo sapiens, UniProt P42336, H1047L).
T13 construct: purchased DiscoveRx (Fremont, CA)
In words: KinomeScan. The following applies: read-out: % Control. Format: binding.

For assay [15], the target named is T14, SBK1 (Homo sapiens, UniProt Q52WX2).
T14 construct: purchased DiscoveRx (Fremont, CA)
In words: KinomeScan. The following applies: read-out: % Control. In kind it is binding.

In assay [16] the target is T15, JNK1 (Homo sapiens, UniProt P45983).
T15 construct: purchased DiscoveRx
In words: KinomeScan. In kind it is binding. The following applies: read-out: % Control.

The target of assay [17] is T16, VRK2 (Homo sapiens, UniProt Q86Y07).
T16 construct: purchased DiscoveRx
In words: KinomeScan. Format: binding. To be noted: read-out: % Control.

Assay [18] concerns the target T17, PIM1 (Homo sapiens, UniProt P11309).
T17 construct: purchased DiscoveRx (Fremont, CA)
The assay can be described thus: KinomeScan. Format: binding. The following applies: read-out: % Control.

Assay [19] has as its target T18, MAP3K3 (Homo sapiens, UniProt Q99759).
T18 construct: purchased DiscoveRx (Fremont, CA)
In words: KinomeScan. In kind it is binding. The following applies: read-out: % Control.

The target of assay [20] is T19, CCR6 (Homo sapiens, UniProt P51684).
T19 construct: host or cells: Chem-1 cells with Gα15
The assay can be described thus: GPCR Profiler. Format: cell-based.

For assay [21], the target named is T20, ITK (Homo sapiens, UniProt Q08881).
T20 construct: purchased DiscoveRx (Fremont, CA)
The assay can be described thus: KinomeScan. In kind it is binding. To be noted: read-out: % Control.

The target in assay [22] is T21, EPHA5 (Homo sapiens, UniProt P54756).
T21 construct: purchased DiscoveRx (Fremont, CA)
The assay can be described thus: KinomeScan. Format: binding. The following applies: read-out: % Control.

In assay [23] the target is T22, ARK5 (Homo sapiens, UniProt O60285).
T22 construct: purchased DiscoveRx (Fremont, CA)
In words: KinomeScan. In kind it is binding. To be noted: read-out: % Control.

Assay [24] concerns the target T23, CRF2 (Homo sapiens, UniProt Q13324).
T23 construct: host or cells: Chem-1 cells with Gα15
In words: GPCR Profiler. In kind it is cell-based.

Assay [25] relates to WM115. In words: Agarose drop assay. In kind it is cell-based, human. The following applies: OGM2 5 μM, 5 days. Here is the method:
WM115 cells were trypsinized and resuspended at 100,000 cells per mL in low melt agarose. A 10 μl drop of the cell mixture was added to 12-well plate. After solidifying Normal culture media was added with either DMSO 0.5% or OGM2 5 μM. The area around the agarose drop was visualized manually with light microscopy. The cells were incubated for 5 days and visualized. Cells outside of the agarose drop were visualized and quantitated.
FIG. 12A is a schematic of the agarose drop assay. WM115 cells were mixed into a low melt agarose solution and single 10 μL drops were seeded onto cell culture plates. After solidifying, media containing OGM2 (5 μM) or CTL (DMSO […]) was added and wells were observed 5 days later. Immediately after media addition no cells are on the plate outside of the agarose gel in CTL or OGM2. Five days after seeding cells are observed outside of the gel (Black arrows) in CTL but not in OGM2. […] Quantification on the number of cells that escaped from an average of 5 gel drop replicates. FIG. 12B through FIG. 12D show the cells after media addition. No cells are on the plate outside of the agarose gel in CTL or OGM2. Five days after seeding, cells are observed outside of the gel (arrows) in CTL but not in OGM2.

Assay [26] deals with T24, GPR4 (Homo sapiens, UniProt P46093).
T24 construct: expressed in transfected cells
The assay can be described thus: SRE-luciferase assay, GPR4-transfected HEK293 cells. The following applies: OGM2 at 1, 10, or 100 μM. Format: cell-based. The protocol:
12-well plates of cells were transfected with 1 μg DNA using Lipofectamine 3000 with sre:luciferase and either the vector backbone, GFP, GPR68, GPR68-GFP, GPR4, or 336X-GFP. After 3 days, these cells were then lysed, and cell extracts were subjected to Steady-Glo luciferase assay (Promega™) according to the manufacturer's instructions. The results were normalized to cell titer, as determined using Cell Titer-Glo luminescence assay (Promega™). For some procedure, the cells were treated in serum-free medium, and were lysed on the third day.
Because GPR4, the paralog with highest homology with GPR68, was not covered in the initial GPCR profiling, whether OGM2 could inhibit GPR4 was tested by examining the effects of OGM2 on acid-induced serum responsive element (SRE) luciferase activity in HEK293 cells transfected with either GPR4 or GPR68. Mild acidification increased luciferase activity in GPR4 and GPR68 transfected cells above that of vector control.
Cas9^GPR68=GPR68 targeted sgRNA and Cas9; CTL=control; MoGPR68=GPR68 morpholino treatment. […] These cells were exposed to acidic media and assayed for luciferase activity as a readout of the receptor activity.

T6 sequence (P34998 24-415): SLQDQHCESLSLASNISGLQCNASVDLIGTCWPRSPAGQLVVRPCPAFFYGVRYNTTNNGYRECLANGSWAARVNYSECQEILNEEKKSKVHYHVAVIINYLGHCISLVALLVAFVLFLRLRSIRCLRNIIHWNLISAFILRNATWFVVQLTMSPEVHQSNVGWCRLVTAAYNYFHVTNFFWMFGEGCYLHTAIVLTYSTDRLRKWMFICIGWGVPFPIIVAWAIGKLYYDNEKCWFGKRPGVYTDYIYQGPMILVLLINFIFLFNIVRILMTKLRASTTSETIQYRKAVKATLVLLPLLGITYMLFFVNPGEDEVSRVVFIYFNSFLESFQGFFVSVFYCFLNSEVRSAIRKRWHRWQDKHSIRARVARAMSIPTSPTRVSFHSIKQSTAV
T23 sequence (Q13324 whole entry): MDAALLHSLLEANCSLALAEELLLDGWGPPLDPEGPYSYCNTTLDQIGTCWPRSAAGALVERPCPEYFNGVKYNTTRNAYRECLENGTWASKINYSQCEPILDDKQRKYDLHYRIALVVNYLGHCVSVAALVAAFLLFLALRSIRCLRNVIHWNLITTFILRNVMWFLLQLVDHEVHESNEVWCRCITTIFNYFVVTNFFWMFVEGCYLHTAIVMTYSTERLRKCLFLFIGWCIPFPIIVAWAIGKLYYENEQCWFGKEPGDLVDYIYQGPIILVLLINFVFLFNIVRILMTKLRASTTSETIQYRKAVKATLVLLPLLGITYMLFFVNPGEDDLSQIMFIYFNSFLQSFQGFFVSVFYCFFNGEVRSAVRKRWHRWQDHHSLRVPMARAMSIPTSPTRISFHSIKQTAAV
T2 sequence (P32246 whole entry, species assumed): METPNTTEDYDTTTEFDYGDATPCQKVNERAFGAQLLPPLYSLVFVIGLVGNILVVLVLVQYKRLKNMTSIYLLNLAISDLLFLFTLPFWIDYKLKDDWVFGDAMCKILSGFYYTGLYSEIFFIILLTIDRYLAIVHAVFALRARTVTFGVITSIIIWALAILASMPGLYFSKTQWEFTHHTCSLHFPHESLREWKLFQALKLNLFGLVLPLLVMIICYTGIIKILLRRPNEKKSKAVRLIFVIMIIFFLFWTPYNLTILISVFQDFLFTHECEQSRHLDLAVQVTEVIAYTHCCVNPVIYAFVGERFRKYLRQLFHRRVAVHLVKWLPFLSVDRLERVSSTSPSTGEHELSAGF
T19 sequence (P51684 whole entry): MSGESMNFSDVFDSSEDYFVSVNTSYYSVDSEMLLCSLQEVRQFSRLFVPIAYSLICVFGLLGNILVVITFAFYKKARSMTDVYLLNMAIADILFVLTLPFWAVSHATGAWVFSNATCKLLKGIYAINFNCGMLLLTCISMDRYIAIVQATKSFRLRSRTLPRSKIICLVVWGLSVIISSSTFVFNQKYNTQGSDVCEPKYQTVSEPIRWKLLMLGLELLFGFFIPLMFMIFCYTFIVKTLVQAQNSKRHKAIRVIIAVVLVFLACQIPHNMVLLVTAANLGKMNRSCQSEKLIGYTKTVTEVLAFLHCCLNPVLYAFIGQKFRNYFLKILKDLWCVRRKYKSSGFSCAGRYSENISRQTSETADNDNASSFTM
T8 sequence (P30989 whole entry, species assumed): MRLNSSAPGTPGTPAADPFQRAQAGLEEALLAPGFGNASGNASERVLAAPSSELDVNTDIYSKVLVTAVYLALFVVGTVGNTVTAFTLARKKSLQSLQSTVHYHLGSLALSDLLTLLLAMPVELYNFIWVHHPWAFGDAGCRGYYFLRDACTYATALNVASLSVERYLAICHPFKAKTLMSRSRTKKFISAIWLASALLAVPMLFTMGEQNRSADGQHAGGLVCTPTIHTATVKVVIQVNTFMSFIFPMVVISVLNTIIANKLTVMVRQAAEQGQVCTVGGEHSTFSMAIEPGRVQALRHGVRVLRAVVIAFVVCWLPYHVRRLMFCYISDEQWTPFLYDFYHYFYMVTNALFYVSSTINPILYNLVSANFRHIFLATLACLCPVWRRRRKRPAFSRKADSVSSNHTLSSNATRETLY
T24 sequence (P46093 whole entry): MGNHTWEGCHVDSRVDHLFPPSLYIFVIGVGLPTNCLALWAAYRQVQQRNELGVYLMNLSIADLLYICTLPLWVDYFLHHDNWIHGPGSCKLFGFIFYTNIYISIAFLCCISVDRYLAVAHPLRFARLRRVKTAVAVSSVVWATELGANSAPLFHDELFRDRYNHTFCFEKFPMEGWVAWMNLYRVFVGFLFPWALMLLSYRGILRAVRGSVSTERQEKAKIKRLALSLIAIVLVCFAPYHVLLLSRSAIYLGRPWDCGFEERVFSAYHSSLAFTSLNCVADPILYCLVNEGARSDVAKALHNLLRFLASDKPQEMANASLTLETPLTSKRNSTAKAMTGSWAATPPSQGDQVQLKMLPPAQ
T1 sequence (Q04912 25-1400): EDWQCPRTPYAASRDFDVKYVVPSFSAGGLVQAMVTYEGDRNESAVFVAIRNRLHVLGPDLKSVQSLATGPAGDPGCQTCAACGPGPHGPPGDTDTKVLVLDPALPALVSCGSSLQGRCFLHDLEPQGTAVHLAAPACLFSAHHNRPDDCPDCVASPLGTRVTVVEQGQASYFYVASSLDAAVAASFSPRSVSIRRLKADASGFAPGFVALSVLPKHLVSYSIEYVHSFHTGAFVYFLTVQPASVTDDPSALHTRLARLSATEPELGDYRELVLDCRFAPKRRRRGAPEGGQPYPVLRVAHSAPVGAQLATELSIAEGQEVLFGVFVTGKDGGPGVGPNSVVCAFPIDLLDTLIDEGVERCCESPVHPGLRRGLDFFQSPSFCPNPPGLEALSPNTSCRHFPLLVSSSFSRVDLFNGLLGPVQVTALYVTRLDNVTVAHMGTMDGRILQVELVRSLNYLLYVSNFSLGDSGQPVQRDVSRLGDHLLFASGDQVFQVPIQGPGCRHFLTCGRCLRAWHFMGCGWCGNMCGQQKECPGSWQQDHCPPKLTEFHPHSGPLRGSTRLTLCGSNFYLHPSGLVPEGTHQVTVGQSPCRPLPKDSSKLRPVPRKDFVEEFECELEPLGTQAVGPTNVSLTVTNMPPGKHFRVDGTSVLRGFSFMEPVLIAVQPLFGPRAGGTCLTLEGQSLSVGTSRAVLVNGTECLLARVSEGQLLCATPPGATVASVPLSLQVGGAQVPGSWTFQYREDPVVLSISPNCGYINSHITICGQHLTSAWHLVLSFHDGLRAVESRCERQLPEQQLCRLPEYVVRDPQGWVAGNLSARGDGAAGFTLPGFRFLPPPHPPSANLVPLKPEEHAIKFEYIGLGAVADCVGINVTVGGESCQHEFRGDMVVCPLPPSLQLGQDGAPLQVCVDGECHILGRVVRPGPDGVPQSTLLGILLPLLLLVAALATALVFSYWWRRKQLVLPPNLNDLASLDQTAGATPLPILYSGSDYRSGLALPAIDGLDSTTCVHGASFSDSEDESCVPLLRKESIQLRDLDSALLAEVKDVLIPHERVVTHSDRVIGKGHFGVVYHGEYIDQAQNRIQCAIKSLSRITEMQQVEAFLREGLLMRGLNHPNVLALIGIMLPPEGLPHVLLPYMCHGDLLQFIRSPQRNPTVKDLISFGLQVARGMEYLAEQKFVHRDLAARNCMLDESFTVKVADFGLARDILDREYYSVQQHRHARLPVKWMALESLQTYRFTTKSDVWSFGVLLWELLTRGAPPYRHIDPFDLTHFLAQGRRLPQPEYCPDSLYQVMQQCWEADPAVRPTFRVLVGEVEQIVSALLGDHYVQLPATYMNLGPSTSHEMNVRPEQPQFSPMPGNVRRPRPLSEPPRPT
T3 sequence (P00519 242-493 F317L limits assumed): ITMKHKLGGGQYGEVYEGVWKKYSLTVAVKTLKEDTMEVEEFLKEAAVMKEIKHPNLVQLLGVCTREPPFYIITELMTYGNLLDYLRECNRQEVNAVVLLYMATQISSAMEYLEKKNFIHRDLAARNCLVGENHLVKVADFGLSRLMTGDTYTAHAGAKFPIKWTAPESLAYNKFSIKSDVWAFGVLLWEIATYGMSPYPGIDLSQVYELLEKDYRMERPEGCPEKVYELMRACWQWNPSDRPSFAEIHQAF
T17 sequence (P11309 whole entry): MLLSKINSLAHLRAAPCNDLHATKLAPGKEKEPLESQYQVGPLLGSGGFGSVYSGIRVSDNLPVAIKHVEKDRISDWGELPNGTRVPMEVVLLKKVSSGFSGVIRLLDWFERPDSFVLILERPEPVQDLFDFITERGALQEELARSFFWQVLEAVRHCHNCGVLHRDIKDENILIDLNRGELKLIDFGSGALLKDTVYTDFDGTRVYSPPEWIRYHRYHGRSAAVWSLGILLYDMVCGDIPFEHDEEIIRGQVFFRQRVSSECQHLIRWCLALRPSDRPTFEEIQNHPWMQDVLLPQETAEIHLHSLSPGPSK
T20 sequence (Q08881 whole entry): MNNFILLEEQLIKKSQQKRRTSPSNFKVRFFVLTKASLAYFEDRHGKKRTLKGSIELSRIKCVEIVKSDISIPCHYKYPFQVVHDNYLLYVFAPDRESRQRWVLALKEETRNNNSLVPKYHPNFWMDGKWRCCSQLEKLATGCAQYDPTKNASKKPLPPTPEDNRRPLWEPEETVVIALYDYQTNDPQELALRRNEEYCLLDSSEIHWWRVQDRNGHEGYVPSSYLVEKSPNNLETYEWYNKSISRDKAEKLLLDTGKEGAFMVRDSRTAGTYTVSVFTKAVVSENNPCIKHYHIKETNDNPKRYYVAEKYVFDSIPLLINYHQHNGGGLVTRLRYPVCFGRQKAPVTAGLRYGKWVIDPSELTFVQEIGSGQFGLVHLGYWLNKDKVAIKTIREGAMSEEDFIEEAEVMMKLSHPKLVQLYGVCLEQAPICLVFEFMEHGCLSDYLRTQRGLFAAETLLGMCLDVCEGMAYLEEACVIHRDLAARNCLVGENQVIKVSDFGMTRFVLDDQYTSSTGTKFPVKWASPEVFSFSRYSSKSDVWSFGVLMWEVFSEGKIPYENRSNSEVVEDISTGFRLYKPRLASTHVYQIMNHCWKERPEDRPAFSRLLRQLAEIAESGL

As for `CCc1ccc2c(c1)C1(NN=C(c3cccc4ccccc34)S1)C(=O)N2` (stereo not shown) [OGM1, 5-ethyl-5′-naphthalen-1-ylspiro[1H-indole-3,2′-3H-1,3,4-thiadiazole]-2-one], the remaining binding at 10 µM amounted to 86% in assay [1]; 92% in [3]; 93% in assay [4]; 58% in assay [5]; 100% in assay [7]; 82% in assay [8]. Further, the remaining binding at 10 µM in assay [10] was 71%; in [11] it was 100%; in assay [12], 96%; in assay [13] it was 84%; in [14] it was 100%; in [15], 100%. For the same molecule, the remaining binding at 10 µM was 63% in [16]; 93% in assay [17]; 56% in [18]; 72% in assay [19]; 100% in assay [21]; 97% in [22]. Moreover, the remaining binding at 10 µM in [23] turned out to be 80%. The Antagonism is given as −0.6 in assay [2] (10 uM); 4.6 in assay [6] (10 uM); 1.6 in assay [9] (10 uM); 5.1 in assay [20] (10 uM); −13.7 in assay [24] (10 uM). Moreover, the Agonism in assay [2] (12.5 uM) was −0.3; in [6] (12.5 uM), −0.1; in assay [9] (12.5 uM) it was 1; in [20] (12.5 uM) it was 1.5; in assay [24] (12.5 uM), 0.6.

As for `CCc1ccc2c(c1)C1(NN=C(c3ccccc3)S1)C(=O)N2` (stereo not shown) [OGM2], in [25], the “migration out of agarose drop” value is “migrated significantly less than the vehicle treated cells”. Also, in assay [26], the “acid-induced SRE-luciferase activity” value is given as “not inhibited”.
